Source: patent US6306893A, “Taxoid derivatives and process for producing the same” (Ensuiko Sugar Refining Company, Ltd, priority 2000, dated 2001)
Values after ≈ are worked out from the molar mass of the structure shown. “Also recorded” adds a separate entry of the source.

Columns and labels:
P388 leukemia cells = assay: Antitumor test in mice implanted with P388 leukemia cells: survival days; assay type: in vivo, mouse; conditions: for Median of Survival Days: P388 i.p. in CDF1 male mice, control 7 days; for Median of Survival Days / % T/C: 20 mg/kg i.p., 5 consecutive days; for % T/C: median survival days treated × 100 / median of control
Text: ^a) Median of survival days of each treated group (day) ×
100/Median of survival days of control group (day)

physchem = conditions: for solubility at 18 h: water
Method: 10 mg of each of paclitaxel, 7-GAG-PT, 7-MAG-PT, 10-GAG-DT (α-anomer), 10-GAG-DT (β-anomer) and 10-MAG-DT (α-anomer)was weighed. To those were added 5 ml of water and the mixture was stirred for 18 hours. After completion of the stirring, supernatant was filtered through a membrane filter (0.45 μm), and the filtrate was analyzed by HPLC. The conditions of HPLC analysis were as follows.

[1] = cited from earlier work; for Solubility in water: background statement
[2] = Change in body weight of P388 leukemia cell implanted mice; assay type: in vivo, mouse; conditions: after i.p. administration
Method: FIG. 1 is a graph illustrating effect of taxoid derivatives on the body weight of P388 leukemia cell implanted mouse.
The mice used were 7 weeks age CDFl mice (male). P388 leukemia cells subcultured in DBA/2 mouse abdominal cavity were injected in the abdominal cavity in an amount of 10^6 cells per mouse. In the case of paclitaxel, samples were dissolved in a solution of ethanol:cremophor=1:1 to a concentration of 6 mg/ml and then diluted 30 times with physiological saline. This was administered intraperitoneally in a dose of 0.1 ml/10 g mouse/time. In the case of taxoid derivatives, samples were dissolved in a solution of ethanol:cremophor=1:1 to a concentration of 60 mg/ml and then diluted 30 times with physiological saline. This was administered intraperitoneally in a dose of 0.1 ml/10 g mouse/time.
The tests were performed by administering the sample for consecutive 5 days starting from the day next to the day when the P388 leukemia cells were injected into the abodominal cavity and observing survival days and change in body weight.

[3] = ratio to paclitaxel (0.4 μg/ml)

CC(=O)O[C@@]12CO[C@@H]1C[C@H](O)[C@@]1(C)C(=O)[C@H](OC(=O)CO[C@H]3O[C@H](CO)[C@H](O)[C@H](O)[C@H]3O)C3=C(C)[C@@H](OC(=O)[C@H](O)[C@@H](NC(=O)OC(C)(C)C)c4ccccc4)C[C@@](O)([C@@H](OC(=O)c4ccccc4)[C@H]21)C3(C)C [10-GAG-DT (α-anomer), Galactosyloxyacetyl-10-docetaxel]
Median of Survival Days (P388 leukemia cells): 12 days
% T/C (P388 leukemia cells): 171%
Solubility in water relative to paclitaxel (physchem): 1204 times
solubility at 18 h (physchem): 482 µg/mL (≈ 469 µM)

CC(=O)O[C@@]12CO[C@@H]1C[C@H](O)[C@@]1(C)C(=O)[C@H](OC(=O)CO[C@H]3O[C@H](CO)[C@@H](O)[C@H](O)[C@@H]3O)C3=C(C)[C@@H](OC(=O)[C@H](O)[C@@H](NC(=O)OC(C)(C)C)c4ccccc4)C[C@@](O)([C@@H](OC(=O)c4ccccc4)[C@H]21)C3(C)C [10-MAG-DT (α-anomer), Mannosyloxyacetyl-10-docetaxel]
Median of Survival Days (P388 leukemia cells): 9 days
% T/C (P388 leukemia cells): 129%
Solubility in water relative to paclitaxel (physchem): 2596 times
solubility at 18 h (physchem): 1040 µg/mL (≈ 1010 µM)

CC(=O)O[C@H]1C(=O)[C@]2(C)[C@@H](OC(=O)COC3O[C@H](CO)[C@@H](O)[C@H](O)[C@@H]3O)C[C@H]3OC[C@@]3(OC(C)=O)[C@H]2[C@H](OC(=O)c2ccccc2)[C@]2(O)C[C@H](OC(=O)[C@H](O)[C@@H](NC(=O)c3ccccc3)c3ccccc3)C(C)=C1C2(C)C (stereo partly shown) [7-MAG-PT, Mannosyloxyacetyl-7-paclitaxel]
Solubility in water relative to paclitaxel (physchem; [3]): 257 times
solubility at 18 h (physchem): 103 µg/mL (≈ 95.9 µM)

CC(=O)O[C@@]12CO[C@@H]1C[C@H](O)[C@@]1(C)C(=O)[C@H](OC(=O)CO[C@@H]3O[C@H](CO)[C@H](O)[C@H](O)[C@H]3O)C3=C(C)[C@@H](OC(=O)[C@H](O)[C@@H](NC(=O)OC(C)(C)C)c4ccccc4)C[C@@](O)([C@@H](OC(=O)c4ccccc4)[C@H]21)C3(C)C [10-GAG-DT (β-anomer), Galactosyloxyacetyl-10-docetaxel]
Median of Survival Days (P388 leukemia cells): 12 days
% T/C (P388 leukemia cells): 171%
Solubility in water relative to paclitaxel (physchem): 753 times
solubility at 18 h (physchem): 301 µg/mL (≈ 293 µM)

CC(=O)O[C@@]12CO[C@@H]1C[C@H](O)[C@@]1(C)C(=O)[C@H](O)C3=C(C)[C@@H](OC(=O)[C@H](O)[C@@H](NC(=O)OC(C)(C)C)c4ccccc4)C[C@@](O)([C@@H](OC(=O)c4ccccc4)[C@H]21)C3(C)C [Docetaxel, docetaxel]
Solubility in water of docetaxel relative to taxol ([1]; I. Ringel et al., J. Natl. Cancer Inst., 83, 288 (1991)): 35 times
Solubility in water [1]: very low solubility in water

CC(=O)O[C@H]1C(=O)[C@]2(C)[C@@H](OC(=O)COC3O[C@H](CO)[C@H](O)[C@H](O)[C@H]3O)C[C@H]3OC[C@@]3(OC(C)=O)[C@H]2[C@H](OC(=O)c2ccccc2)[C@]2(O)C[C@H](OC(=O)[C@H](O)[C@@H](NC(=O)c3ccccc3)c3ccccc3)C(C)=C1C2(C)C (stereo partly shown) [7-GAG-PT, Galactosyloxyacetyl-7-paclitaxel]
Solubility in water relative to paclitaxel (physchem; [3]): 169 times
solubility at 18 h (physchem): 67.8 µg/mL (≈ 63.1 µM)

CC(=O)O[C@@]12CO[C@@H]1C[C@H](O)[C@@]1(C)C(=O)[C@H](OC(=O)COC3O[C@H](CO)[C@@H](O)[C@H](O)[C@@H]3O)C3=C(C)[C@@H](OC(=O)[C@H](O)[C@@H](NC(=O)OC(C)(C)C)c4ccccc4)C[C@@](O)([C@@H](OC(=O)c4ccccc4)[C@H]21)C3(C)C (stereo partly shown) [10-MAG-DT, Mannosyloxyacetyl-10-docetaxel]
Survival effect as compared with paclitaxel (P388 leukemia cells; P388 leukemia implanted mice, versus paclitaxel): substantially equivalent to that of paclitaxel

CC(=O)O[C@H]1C(=O)[C@@]2(C)[C@H]([C@H](OC(=O)c3ccccc3)[C@]3(O)C[C@H](OC(=O)[C@H](O)[C@@H](NC(=O)c4ccccc4)c4ccccc4)C(C)=C1C3(C)C)[C@]1(OC(C)=O)CO[C@@H]1C[C@@H]2O [Paclitaxel, paclitaxel]
Median of Survival Days (P388 leukemia cells): 10 days
% T/C (P388 leukemia cells): 143%
Solubility in water [1]: very low solubility in water; also recorded: low solubility in water
Change in body weight [2]: abrupt decrease in body weight; also recorded: decreased abruptly

CC(=O)O[C@@]12CO[C@@H]1C[C@H](O)[C@@]1(C)C(=O)[C@H](OC(=O)COC3O[C@H](CO)[C@H](O)[C@H](O)[C@H]3O)C3=C(C)[C@@H](OC(=O)[C@H](O)[C@@H](NC(=O)OC(C)(C)C)c4ccccc4)C[C@@](O)([C@@H](OC(=O)c4ccccc4)[C@H]21)C3(C)C (stereo partly shown) [10-GAG-DT, Galactosyloxyacetyl-10-docetaxel]
Antitumor / physiological activity (P388 leukemia cells; P388 leukemia implanted mice): excellent antitumor activity
Survival effect as compared with paclitaxel (P388 leukemia cells; P388 leukemia implanted mice, ratio to paclitaxel): 1.2 times
